Assay results as given in patent publication US20240391954A1, “MC4R AGONIST PEPTIDES” (The Regents of the University of Michigan, priority 2021, published 2024).
Like-named read-outs stand apart in the source and are kept apart here. Positions of bridges follow the written chain, without caps; N, C: chain ends. Non-standard residues stand in square brackets, D forms with d. Residues, ends and D or L forms follow the SMILES beside them. dPhe(4-Br) = N[C@H](Cc1ccc(Br)cc1)C(=O)O; d(αMeF) = C[C@@](N)(Cc1ccccc1)C(=O)O; Cit = NC(=O)NCCC[C@H](N)C(=O)O; Nle = CCCC[C@H](N)C(=O)O; Aib = CC(C)(N)C(=O)O

How the values were obtained:
[1] = molecular target: T1, human MC3R (Homo sapiens, UniProt P41968); assay: split-luciferase cAMP sensor assay, agonist mode (measurement window 1), hMC3R; assay type: cell-based; details: for EC50 / Emax: agonist mode; for EC50: read-out: MC3R cAMP EC50; for Emax: read-out: MC3R cAMP % max activation
T1 construct: expressed in transfected cells; host or cells: HEK-293 cells stably expressing the GScAMP22F split-luciferase cAMP sensor (parent reporter line from Promega); MC3R clone generated in-house, G418 selection
Protocol: (§1) The stable cell lines were grown and maintained in selection media consisting of Dulbecco's modified Eagle media (DMEM) with 4.5 g/l D-glucose, and 4 mM L-glutamine (Thermo Fisher Scientific, Waltham, MA), supplemented with 10% fetal bovine serum, 100 units/ml penicillin, 100 μg/ml streptomycin, 2.5 μg/ml amphotericin B, 200 μg/ml hygromycin B (for positive selection of the GScAMP22f luciferase reporter), and Geneticin™ (G418) 700 μg/ml (for MC3R or MC4R selection). Actual serum concentration during the assay is estimated to be about 1%. Cell line identity is routinely verified by qPCR and MC3R-and MC4R-specific oligonucleotides.
(§2) The assay for the determination of the cAMP response in live cells was described previously. […] Cells were seeded at a density of 20,000 cells per well using 384-well poly-D lysine-coated, clear bottom, and black-wall assay plates (Corning Inc. Corning, NJ). Cells were allowed to attach to the plates for 18 to 24 h after which growth media was removed and 20 μl of 4% D-luciferin (Promega) in CO2 independent, serum-free medium (Thermo Fisher Scientific) was added to each well. […] Intracellular cAMP levels were measured using an FDSS 7000EX Functional Drug Screening System (Hamamatsu Photonics, Hamamatsu, Japan) in the Center for Chemical Genomics at the Life Sciences Institute. This instrument allowed the in-line addition of test-peptides and receptor agonists while simultaneously acquiring the luminescence signal from live cells. […] A submaximal forskolin (20 μM) concentration was also included to serve as a normalization reference to account for cell number variations and differences in assay transducer efficiency between cell lines.
(§3) With this set up it was possible to evaluate the direct effect of the test-peptides on the MC3R and MC4R cell lines during measurement window 1, while the antagonist profile in the presence of EC90 α-MSH was determined on measurement window 2. […] EC50 or IC50 potency values were determined by non-linear regression by fitting the data to a sigmoid four-parameter variable slope model using the GraphPad Prism version 8.4 software package (San Diego CA).

[2] = molecular target: T2, human MC4R (Homo sapiens, UniProt P32245); assay: split-luciferase cAMP sensor assay, agonist mode (measurement window 1), hMC4R; assay type: cell-based; details: for Emax / EC50: agonist mode; for Emax: read-out: MC4R cAMP % max activation; for EC50: read-out: MC4R cAMP EC50
T2 construct: host or cells: HEK-293 cells stably expressing the GScAMP22F split-luciferase cAMP sensor and hMC4R, G418 selection
Protocol: as §1, §2, §3

T1 sequence (P41968 whole entry): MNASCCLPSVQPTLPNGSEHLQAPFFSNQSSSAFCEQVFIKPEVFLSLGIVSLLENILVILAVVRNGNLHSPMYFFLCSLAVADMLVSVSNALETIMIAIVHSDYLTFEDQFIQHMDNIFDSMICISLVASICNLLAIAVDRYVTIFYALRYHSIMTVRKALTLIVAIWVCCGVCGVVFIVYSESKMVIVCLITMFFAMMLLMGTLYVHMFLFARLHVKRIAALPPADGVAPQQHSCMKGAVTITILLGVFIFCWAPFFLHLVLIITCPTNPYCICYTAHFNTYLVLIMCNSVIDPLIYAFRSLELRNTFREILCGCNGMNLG
T2 sequence (P32245 whole entry): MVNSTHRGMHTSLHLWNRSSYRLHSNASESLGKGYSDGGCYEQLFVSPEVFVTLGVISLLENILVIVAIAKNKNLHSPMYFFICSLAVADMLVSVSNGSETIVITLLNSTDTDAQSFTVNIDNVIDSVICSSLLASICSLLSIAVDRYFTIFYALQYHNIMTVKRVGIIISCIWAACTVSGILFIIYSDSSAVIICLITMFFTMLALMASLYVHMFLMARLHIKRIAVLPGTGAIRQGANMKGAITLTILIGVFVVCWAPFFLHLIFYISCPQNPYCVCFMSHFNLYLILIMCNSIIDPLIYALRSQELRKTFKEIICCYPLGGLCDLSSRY

SMILES | EC50 ([1]; hMC3R stable cell line) [nM] | MC4R selectivity vs MC1R [2] | MC4R selectivity vs MC3R [2] | Emax ([2]; hMC4R stable cell line) [%] | Emax ([1]; % maximal activation) [%] | EC50 ([1]; HEK-293 cells stably expressing hMC3R) [nM] | MC4R selectivity vs MC3R ([1]; MC4R versus MC3R) | Emax ([2]; % maximal activation) [%] | EC50 ([2]; HEK-293 cells stably expressing hMC4R) [nM] | Emax ([1]; hMC3R stable cell line) [%] | EC50 ([2]; hMC4R stable cell line) [nM]
COc1ccc(C[C@H]2NC(=O)[C@H](CCCNC(N)=O)NC(=O)C(C)(C)NC(=O)[C@@H](NC(=O)[C@H](CCCNC(=N)N)NC(C)=O)CSSC[C@@H](C(N)=O)NC(=O)[C@@H](Cc3c[nH]c4ccccc34)NC(=O)[C@H](CCCNC(=N)N)NC2=O)cc1 [CTX-1600, Arg-cyclo(Cys-Aib-Cit-D-Tyr(4-OMe)-Arg-D-Trp-Cys)] (Ac-RC[Aib][Cit][dY](Me)R[dW]C-NH2; disulfide 2-8) | > 10000 | >70 | >70 | 58 |  |  |  |  |  |  | 
CC(=O)N[C@H]1CSSC[C@@H](C(N)=O)NC(=O)[C@H](Cc2c[nH]c3ccccc23)NC(=O)[C@H](CCCNC(=N)N)NC(=O)[C@@H](Cc2ccccc2)NC(=O)[C@H](Cc2c[nH]cn2)NC(=O)CNC1=O [CTX-1206, cyclo(Cys-Gly-His-D-Phe-Arg-Trp-Cys)] (Ac-CGH[dF]RWC-NH2; disulfide 1-7 (inferred)) |  |  |  |  | 94 | 12 | 23 | 101 | 0.52 |  | 
CC(=O)N[C@@H](CCCNC(=N)N)C(=O)N[C@H]1CSSC[C@@H](C(N)=O)NC(=O)[C@H](Cc2c[nH]c3ccccc23)NC(=O)[C@H](CCCNC(=N)N)NC(=O)[C@@H](Cc2c[nH]c3ccccc23)NC(=O)[C@H](CCCNC(=N)N)NC(=O)[C@@H](C)NC1=O [CTX-1274, Arg-cyclo(Cys-D-Ala-Arg-D-Trp-Arg-Trp-Cys)] (Ac-RC[dA]R[dW]RWC-NH2; disulfide 2-8) |  | 0.19 | 0.12 | 77 |  |  |  |  |  | 5.4 | 1400
CC(=O)N[C@@H](CCCNC(=N)N)C(=O)N[C@H]1CSSC[C@@H](C(=O)N[C@@H](CCCNC(=N)N)C(=O)N[C@H](Cc2ccccc2)C(N)=O)NC(=O)[C@@H](Cc2c[nH]c3ccccc23)NC(=O)[C@H](CCCNC(=N)N)NC(=O)[C@@H](Cc2ccc(Br)cc2)NC(=O)[C@H](CCCNC(=N)N)NC(=O)[C@@H](C)NC1=O [CTX-1222, Arg-cyclo(Cys-D-Ala-Arg-D-Phe(4-Br)-Arg-D-Trp-Cys)-Arg-D-Phe] (Ac-RC[dA]R[dPhe(4-Br)]R[dW]CR[dF]-NH2; disulfide 2-8 (inferred)) |  | 0.1 | 0.33 | 79 |  |  |  |  |  | 38 | 
CC(=O)N[C@@H](CCCNC(=N)N)C(=O)N[C@H]1CSSC[C@@H](C(N)=O)NC(=O)[C@@H](Cc2c[nH]c3ccccc23)NC(=O)[C@H](CCCNC(=N)N)NC(=O)[C@@](C)(Cc2ccccc2)NC(=O)[C@H](CCCNC(=N)N)NC(=O)[C@@H](C)NC1=O [CTX-1279, Arg-cyclo(Cys-D-Ala-Arg-a-Me-D-Phe-Arg-D-Trp-Cys)] (Ac-RC[dA]R[d(αMeF)]R[dW]C-NH2; disulfide 2-8) |  | 0.83 | 0.61 | 79 |  |  |  |  |  | 20 | 72
CCCC[C@H](NC(=O)[C@H](CCCNC(=N)N)NC(C)=O)C(=O)N[C@H]1CSSC[C@@H](C(N)=O)NC(=O)[C@H](Cc2c[nH]c3ccccc23)NC(=O)[C@H](CCCNC(=N)N)NC(=O)[C@@H](Cc2ccc(Br)cc2)NC(=O)[C@H](CCCNC(=N)N)NC1=O [CTX-1612, Arg-Nle-cyclo(Cys-Arg-D-Phe(4-Br)-Arg-Trp-Cys)] (Ac-R[Nle]CR[dPhe(4-Br)]RWC-NH2; disulfide 3-8 (inferred)) | 4.5 | 0.09 | 2.27 | 25 |  |  |  |  |  | 27 | 2
CCCC[C@H](NC(=O)[C@H](CCCNC(=N)N)NC(C)=O)C(=O)N[C@H]1CSSC[C@@H](C(N)=O)NC(=O)[C@@H](Cc2c[nH]c3ccccc23)NC(=O)[C@H](CCCNC(=N)N)NC(=O)[C@@H](Cc2ccc(OC)cc2)NC(=O)[C@H](CCCNC(=N)N)NC1=O [CTX-1615, Arg-Nle-cyclo(Cys-Arg-D-Tyr(4-OMe)-Arg-D-Trp-Cys)] (Ac-R[Nle]CR[dY](Me)R[dW]C-NH2; disulfide 3-8) | 27 | 0.26 | 2.14 | 68 |  |  |  |  |  | 55 | 13
